# Assay results from EPA's ToxValDB 9.5 (doi:10.2903/j.efsa.2009.239r).
# Columns and labels:
# Anas platyrhynchos = conditions: oral, mortality
# Apis mellifera = conditions: acute; duration: 48 hours; dermal; mortality
# Bibionidae = conditions: chronic/long-term; duration: 28 days
# Canidae = conditions: oral, Dog Other, clinical signs
# Chrysoperla externa = conditions: not reported; mortality
# Coturnix japonica = conditions: acute, oral, mortality
# Daphnia magna = conditions: acute; duration: 48 hours; mortality
# Hypoaspis aculeifer = conditions: chronic/long-term, duration: 14 days
# Lepomis macrochirus = conditions: acute; duration: 96 hours; mortality
# Tagia sp. = conditions: acute; duration: 14 days; mortality
smiles,measurement,setting,value
CCOC(=O)CCN(SN(C)C(=O)Oc1cccc2c1OC(C)(C)C2)C(C)C [Benfuracarb],LD50,"Anas platyrhynchos; acute, unspecified",19.8 mg/kg-day
same,LC50,"Anas platyrhynchos; short-term, feed",15 mg/kg-day
same,LD50,Apis mellifera,0.19 µg/piece
same,NOEC,Bibionidae,0.001 mg/L
same,NOAEL,"Canidae; chronic, duration: 6 months",1 mg/kg-day
same,NOAEL,"Canidae; chronic, duration: 24 months",1 mg/kg-day
same,NOAEL,"Canidae; subchronic, duration: 13 weeks",1 mg/kg-day
same,LD50,Chrysoperla externa,5.2 g/ha
same,LC50,"Colinus virginianus; acute, oral, diet, mortality",179 mg/kg-day
same,NOEL,Colinus virginianus; reproduction developmental,8.93 mg/kg-day
same,LD50,Coturnix japonica; F,39.9 mg/kg-day
same,LD50,Coturnix japonica; M,48.3 mg/kg-day
same,LC50,Daphnia magna,0.0099 µg/mL
same,LEL,Hypoaspis aculeifer; mortality,1000 g/ha
same,LEL,Hypoaspis aculeifer; reproduction,1000 g/ha
same,LC50,Lepomis macrochirus,0.017 µg/mL
same,LD50,"Rattus norvegicus; acute, oral, mortality",205 mg/kg-day
same,NOAEL,"Rattus norvegicus; reproduction developmental, reproduction",1.2 mg/kg-day
same,NOAEL,"Rattus norvegicus; short-term, duration: 28 days, clinical signs",1.8 mg/kg-day
same,LC50,Tagia sp.,58 mg/kg
same,NOEC,Tagia sp.,< 10 mg/kg
